{"source": "patent US11266655B2", "about": "“Methods and compositions for treating urea cycle disorders” (Camp4 Therapeutics Corporation, priority 2019, dated 2022)", "key": {"[1]": {"system": "OTC", "assay": "siRNA knockdown of JAK/STAT/IRF genes in hepatocytes, OTC mRNA", "assay_type": "cell-based, human", "conditions": "10 nM siRNA plus 0.03 nM JAK1 siRNA, FIG. 27C", "excerpt": "(§1) To confirm that JAK1 inhibition is necessary for OTC and CPS1 gene expression increase, JAK1, JAK2, and JAK3 expression was knocked down using the siRNA methods previously described in Example 1 (JAK1 siRNA Dharmacon #M-003145-02-0005; JAK2 siRNA Dharmacon #M-003146-02-0005; JAK3 siRNA Dharmacon #M-003147-01-0005). The cells were harvest for mRNA collection and quantification as previously described.\nIn addition, STAT5B is a JAK1 signal transducer and transcription factor activated by JAK1. STAT5B was knocked down in hepatocytes using siRNA (Dharmacon cat #M-010539-02-0005) as previously described in Example 1. The cells were harvest for mRNA collection and quantification as previously described.\n(§2) To confirm the role of JAK1 and investigate the role of other signaling proteins and transcription factors in OTC and CPS1 expression, a panel of additional genes were knocked down with siRNA alone or in combination with JAK1. In particular, JAK2 was knockdown alone or in combination with JAK1. The combinations are shown in FIG. 26A and FIG. 26B. siRNA used to knock down JAK1 and JAK2 were: JAK1 siRNA Dharmacon #M-003145-02-0005; JAK2 siRNA Dharmacon #M-003146-02-0005. OTC and CPS1 mRNA expression was normalized to B2M. The assay was performed in triplicate in three donor hepatocyte cell lines: 371, 171, and 511A.\n(§3) Cells were harvested after siRNA treatment for mRNA quantification. JAK1, OTC, and CPS1 mRNA levels were normalized to GUSB."}, "[2]": {"system": "CPS1", "assay": "siRNA knockdown of JAK/STAT/IRF genes in hepatocytes, CPS1 mRNA", "assay_type": "cell-based, human", "conditions": "10 nM siRNA plus 0.03 nM JAK1 siRNA, FIG. 27D", "excerpt": "as §1, §2, §3"}, "[3]": {"system": "Nags", "conditions": "mice, 5 mg/kg i.p. once daily for 4 days, FIG. 32", "quoted_text": "After the final dose, the animals were sacrificed at 5 h, 7 h or 9 h post-dose and their livers and serum collected and flash frozen. The livers were processed and total RNA extracted. mRNA levels for Otc, Cps1, Ass1, As1, Arg1 and Nags were measured using qRT-PCR relative to the geometric mean of the expression levels of several housekeeping genes (Actb, B2m, Ppia, Gapdh, Hprt, Gusb)."}, "[4]": {"system": "Ass1", "assay": "EC144 in C57/B16 mice, liver Ass1 mRNA by qRT-PCR", "assay_type": "in vivo, mouse", "conditions": "5 mg/kg i.p. once daily for 4 days, FIG. 32", "method": "(§4) The in vivo effect of EC144 was assessed."}, "[5]": {"system": "Cps1", "assay": "EC144 in C57/B16 mice, liver Cps1 mRNA by qRT-PCR", "assay_type": "in vivo, mouse", "method": "as §4"}, "[6]": {"system": "Otc", "assay": "EC144 in C57/B16 mice, liver Otc mRNA by qRT-PCR", "assay_type": "in vivo, mouse", "method": "as §4"}, "[7]": {"assay": "EC144 in C57/B16 mice, serum urea levels (Blood Urea Nitrogen Assay Kit)", "assay_type": "in vivo, mouse", "conditions": "5 mg/kg i.p. once daily for 4 days, 5 h, 7 h or 9 h post-dose, vs vehicle", "method": "as §4\nSerum urea levels were measured using the Blood Urea Nitrogen Assay Kit (Invitrogen, Cat #EIABUN) per manufacturer's instructions. The data was plotted in GraphPad and statistical significance of the data sets determined using the Holm-Sidak method for multiple comparisons (α=0.05)."}, "[8]": {"system": "Arg1", "assay": "EC144 in C57/B16 mice, liver Arg1 mRNA by qRT-PCR", "assay_type": "in vivo, mouse", "conditions": "5 mg/kg i.p. once daily for 4 days, FIG. 32", "method": "as §4"}, "[9]": {"assay": "EC144 in C57/B16 mice, liver As1 mRNA by qRT-PCR", "assay_type": "in vivo, mouse", "conditions": "5 mg/kg i.p. once daily for 4 days, FIG. 32", "method": "as §4"}, "[10]": {"system": "OTC", "assay": "JAK inhibitors at 0.3 and 3 μM in primary human hepatocytes, OTC mRNA fold change", "assay_type": "cell-based", "conditions": "fold change vs DMSO", "method": "(§5) Additional small molecules that inhibit JAK1, JAK2, JAK3, or a combination of the JAK proteins were tested in primary human hepatocytes as described in Example 2. JAK inhibitors were tested in triplicate at 0.3 μM and 3 μM. The results are shown as the fold change (mRNA FC) in the mRNA levels of OTC and CPS1 genes after treatment compared to an untreated control (DMSO) and the standard deviation (SD)."}, "[11]": {"system": "Cps1", "assay": "JAK1 inhibitors in C57/B16 mice, liver Cps1 mRNA by qRT-PCR", "assay_type": "in vivo, mouse", "conditions": "i.p. once daily for 4 days, 6 hours after administration, vs control treated mice", "quoted_text": "(§6) After the final dose, the animals were sacrificed, their livers were harvested and snap-frozen. The livers were processed to extract total RNA and the mRNA for Otc and Cps1 were measured using qRT-PCR relative to the geometric mean of the expression levels of several housekeeping genes (Actb, B2m, Ppia, Gapdh, Hprt, Gusb)."}, "[12]": {"system": "CPS1", "assay": "JAK inhibitors at 0.3 and 3 μM in primary human hepatocytes, CPS1 mRNA fold change", "assay_type": "cell-based", "conditions": "fold change vs DMSO", "method": "as §5"}, "[13]": {"system": "Otc", "assay": "JAK1 inhibitors in C57/B16 mice, liver Otc mRNA by qRT-PCR", "assay_type": "in vivo, mouse", "conditions": "i.p. once daily for 4 days, 6 hours after administration, vs control treated mice", "quoted_text": "as §6"}, "[14]": {"system": "Socs1", "assay": "JAK1 inhibitors in C57/B16 mice, Socs1 mRNA", "assay_type": "in vivo, mouse", "conditions": "i.p. once daily for 4 days", "quoted_text": "8-10 week old male C57/B16 mice were injected intraperitoneally with JAK1 inhibitors updactinib at 10 mg/kg or tofacitinib at 15 mg/kg. 8-10 week old male C57/B16 mice were injected intraperitoneally with JAK1 inhibitors updactinib at 10 mg/kg or tofacitinib at 15 mg/kg once daily for 4 days. After the final dose, the animals were sacrificed, their livers were harvested and snap-frozen."}, "[15]": {"conditions": "mice, 5 mg/kg i.p. once daily for 4 days, FIG. 32"}}}
{"compound": "IRF9 (DNA AWCGAAACCGAAACY; target site or template, no part of the molecule; chemistry not given here)", "values": [{"measurement": "OTC expression after knockdown in combination with JAK1", "setting": "[1]", "value": "increased"}, {"measurement": "CPS1 expression after knockdown in combination with JAK1", "setting": "[2]", "value": "increased"}]}
{"compound": "COc1c(C)cnc(Cn2cc(C#CCC(C)(C)O)c3c(Cl)nc(N)nc32)c1C", "note": "[EC144]", "values": [{"measurement": "Nags expression in vivo", "setting": "[3]", "value": "increased"}, {"measurement": "Ass1 expression in vivo", "setting": "[4]", "value": "increased"}, {"measurement": "Cps1 expression over time", "setting": "[5]; 9 h after administration as compared to 5 h", "value": "greater expression"}, {"measurement": "Cps1 expression in vivo", "setting": "[5]; at 5 h, 7 h, and 9 h after administration, FIG. 33B", "value": "increased"}, {"measurement": "Cps1 expression in vivo", "setting": "[5]; [15]", "value": "increased"}, {"measurement": "Otc expression in vivo", "setting": "[6]; 5 h after administration, FIG. 33A", "value": "increased"}, {"measurement": "Otc expression in vivo", "setting": "[6]; [15]", "value": "increased"}, {"measurement": "serum urea levels", "setting": "[7]", "value": "increased"}, {"measurement": "Arg1 expression in vivo", "setting": "[8]", "value": "increased"}, {"measurement": "As1 expression in vivo", "setting": "[9]", "value": "increased"}]}
{"compound": "C[C@@H]1CCN(C(=O)CC#N)C[C@@H]1N(C)c1ncnc2[nH]ccc12", "note": "[tofacitinib]", "values": [{"measurement": "OTC mRNA FC", "setting": "[10]; 0.3 uM", "value": 3.2}, {"measurement": "OTC mRNA FC", "setting": "[10]; 3 uM", "value": 5.17}, {"measurement": "Cps1 expression in liver", "setting": "[11]", "value": "increased"}, {"measurement": "CPS1 mRNA FC", "setting": "[12]; 0.3 uM", "value": 1.67}, {"measurement": "CPS1 mRNA FC", "setting": "[12]; 3 uM", "value": 2.54}, {"measurement": "Otc expression in liver", "setting": "[13]", "value": "increase"}, {"measurement": "Socs1 mRNA expression", "setting": "[14]", "value": "decreased"}]}
